Source: US7473711B2, “Androgen modulators” (Pfizer Inc., priority 2004, dated 2009)
Where a chain is given by its changes, count along the chain named. Where two headings read alike, the source gives them in different places.

Columns and labels:
[1] = target: T1, hAR (human androgen receptor) (Homo sapiens, UniProt P10275); assay: Competitive binding analysis on hAR extracts with 3H-DHT tracer
T1 construct: made in house; host or cells: baculovirus/Sf9 insect cells (extract)
T1 sequence (P10275 1-920): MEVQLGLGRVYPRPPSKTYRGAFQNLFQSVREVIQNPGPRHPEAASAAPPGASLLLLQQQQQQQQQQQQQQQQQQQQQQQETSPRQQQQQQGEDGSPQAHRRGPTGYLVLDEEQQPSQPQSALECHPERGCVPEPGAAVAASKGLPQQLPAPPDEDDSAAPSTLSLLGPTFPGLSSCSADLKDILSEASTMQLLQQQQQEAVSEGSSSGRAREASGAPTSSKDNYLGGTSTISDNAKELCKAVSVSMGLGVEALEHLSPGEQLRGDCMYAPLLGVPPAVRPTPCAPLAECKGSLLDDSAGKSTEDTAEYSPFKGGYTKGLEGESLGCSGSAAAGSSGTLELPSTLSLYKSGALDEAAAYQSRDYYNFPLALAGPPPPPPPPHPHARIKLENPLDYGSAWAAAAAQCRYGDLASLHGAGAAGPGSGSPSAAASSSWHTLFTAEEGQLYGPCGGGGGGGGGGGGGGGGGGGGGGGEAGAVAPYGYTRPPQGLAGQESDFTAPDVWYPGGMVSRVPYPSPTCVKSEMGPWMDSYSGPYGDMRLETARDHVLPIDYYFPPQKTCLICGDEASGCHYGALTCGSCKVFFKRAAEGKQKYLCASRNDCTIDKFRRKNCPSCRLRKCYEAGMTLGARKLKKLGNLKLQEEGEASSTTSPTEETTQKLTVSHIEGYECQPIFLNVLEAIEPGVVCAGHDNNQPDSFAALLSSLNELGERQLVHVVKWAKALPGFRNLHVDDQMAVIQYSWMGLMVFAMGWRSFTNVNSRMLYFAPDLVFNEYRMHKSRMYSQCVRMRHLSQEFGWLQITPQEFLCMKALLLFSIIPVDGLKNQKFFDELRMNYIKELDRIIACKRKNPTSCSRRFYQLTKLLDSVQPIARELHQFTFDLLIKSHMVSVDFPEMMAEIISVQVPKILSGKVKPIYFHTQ
Protocol: The compounds of Formula I have affinity for the androgen receptor. […] The description below describes how the assay was carried out.
Competitive binding analysis was performed on baculovirus/Sf9 generated hAR extracts in the presence or absence of different concentrations of test agent and a fixed concentration of ^3H-dihydrotestosterone (^3H-DHT) as tracer. This binding assay method is a modification of a protocol previously described (Liao S., et. al. J. Steroid Biochem. 20:11-17 1984). Briefly, progressively decreasing concentrations of compounds are incubated in the presence of hAR extract (Chang et al. P.N.A.S. Vol. 89, pp. […], 1992), hydroxylapatite, and 1 nM ^3H-DHT for one hour at 4° C. Subsequently, the binding reactions are washed three times to completely remove excess unbound ^3H-DHT. hAR bound ^3H-DHT levels are determined in the presence of compounds (i.e. competitive binding) and compared to levels bound when no competitor is present (i.e. maximum binding). Compound binding affinity to the hAR is expressed as the concentration of compound at which one half of the maximum binding is inhibited. Table II below provides the results that were obtained for selected compounds (reported data is the mean of multiple tests as shown below)

[2] = target: T2, androgen receptor in MDA-MB453-MMTV clone 54-19 cells (Homo sapiens, UniProt P10275); assay: AR antagonist cell assay (MMTV-luciferase reporter, 100 pM DHT); assay type: cell-based
T2 sequence (P10275 1-920 Q868H): T1 sequence (P10275 1-920) with Q868H
Protocol: The compounds ability to antagonize the effects of androgen on the androgen receptor were determined in a whole cell assay as described immediately below.
Experimental Procedure for AR Antagonist Cell Assay
Cell line: MDA-MB453-MMTV clone 54-19. This cell line is a stable transfected cell line with MDA-MB453 cell background (a human breast tumor cell line expressing androgen receptor). A MMTV minimal promoter containing ARE was first cloned in front of a firefly luciferase reporter gene. Then the cascade was cloned into transfection vector pUV120puro. Electroporation method was used for transfecting MDA-MB-453 cell. Puromycin resistant stable cell line was selected. Cell Culture Media and Reagents:
Culture medium: DMEM (high glucose, Gibco cat #: 11960-044), 10% FBS, and 1% L-glutamine
Plating medium: DMEM (phenol red free), 10% charcoal treated HyClone serum, 1% L-glutamine
Assay medium: DMEM (phenol red free), 1% charcoal treated HyClone serum, 1% L-glutamine, and 1% penicillin/streptomycin
3X luciferase buffer: 2% beta-mercaptoethanol, 0.6% ATP, 0.0135% luciferine in cell lysis buffer
• 1. Cells are maintained in culture medium, splitting cells when they reach 80-90% confluence • 2. To test compounds, 10,000 cells/well are plated to opaque 96 cell culture plate in 100 ul/well plating medium, culture for overnight at 37° C. in cell culture incubator • 3. Carefully remove plating medium, then add 80 ul/well of pre-warmed assay medium, add 10 ul/well testing compound (final concentration at) 1000 nM, 200 nM, 40 nM, 8 nM, 1.6 nM, and 0.32 nM), incubate at 37° C. for 30 minutes • 4. Add 10 ul/well freshly prepared DHT (final concentration at 100 pM) to each well, incubate at 37° C. for 17 hr (overnight) • 5. Add 50 ul/well 3X luciferase buffer, incubate at room temperature for 5 minutes, then count on Luminometer
The fold induction over background by 100 pM DHT in the absence of testing compounds is standardized as 100% and experimental result is expressed as percentage of inhibition by testing compounds.
The results are reported as the mean of multiple tests as described below (the numbers of tests are indicated in the footnote). N.D. denotes that the compound was not tested.

[3] = tested on: spinal BMD; details: after 7 years of treatment; cited from earlier work
[4] = MDA-MB453-MMTV clone 54-19, inhibition of 100 pM DHT induced luciferase, 17 hr; mean of multiple tests; read-out: AR Cell IC50
[5] = baculovirus/Sf9 hAR extract, 1 nM 3H-DHT, one hour at 4° C, mean of multiple tests, read-out: AR Binding IC50

Compound | IC50 [1] [nM] | IC50 [2, 4] [nM] | IC50 [1, 5] [nM] | IC50 ([2]; read-out: AR Cell IC50; MDA-MB453-MMTV clone 54-19, inhibition of 100 pM DHT induced luciferase, 17 hr; mean of multiple tests) [nM] | increase in spinal BMD [3] [%]
C=CCC(CCOc1ccc(C#N)c(C(F)(F)F)c1)Oc1ccc(C#N)c(C(F)(F)F)c1 (stereo not drawn) [Example 17, 4,4′-[Hex-1-ene-4,6-diylbis(oxy)]bis[2-(trifluoromethyl)benzonitrile]] | 47 | > 1000 |  |  | 
CC(C)(CCOc1ccc(C#N)c(C(F)(F)F)c1)Oc1ccc(C#N)c(C(F)(F)F)c1 [Example 18, 4,4′-[(3-Methylbutane-1,3-diyl)bis(oxy)]bis[2-(trifluoromethyl)benzonitrile]] |  | > 1000 | 410 |  | 
CCCC(Oc1ccc(C#N)c(C(F)(F)F)c1)C(CC)COc1ccc(C#N)c(C(F)(F)F)c1 (stereo not drawn) [Example 19, 4-{[3-(4-Cyanophenoxy)-2-ethylhexyl]oxy}bis[2-(trifluoromethyl)benzonitrile]] |  | > 1000 | 216 |  | 
CCCC(CCCOc1ccc(C#N)c(C(F)(F)F)c1)Oc1ccc(C#N)c(C(F)(F)F)c1 (stereo not drawn) [Example 21, 4,4′-[Heptane-1,4-diylbis(oxy)]bis[2-(trifluoromethyl)benzonitrile]] |  | > 1000 | 233 |  | 
CC(CCC(C)Oc1ccc(C#N)c(C(F)(F)F)c1)Oc1ccc(C#N)c(C(F)(F)F)c1 (stereo not drawn) [Example 22, 4,4′-[Hexane-2,5-diylbis(oxy)]bis[2-(trifluoromethyl)benzonitrile]] |  | 322 | 293 |  | 
CC(CCCCOc1ccc(C#N)c(C(F)(F)F)c1)Oc1ccc(C#N)c(C(F)(F)F)c1 (stereo not drawn) [Example 25, 4,4′-[Hexane-1,5-diylbis(oxy)]bis[2-(trifluoromethyl)benzonitrile]] |  | > 1000 | 159 |  | 
CC(CCOc1ccc(C#N)c(C(F)(F)F)c1)CCOc1ccc(C#N)c(C(F)(F)F)c1 [Example 26, 4,4′-[(3-Methylpentane-1,5-diyl)bis(oxy)]bis[2-(trifluoromethyl)benzonitrile]] |  | 212 | 156 |  | 
N#Cc1ccc(O[C@H](CO)COc2ccccc2)cc1C(F)(F)F [Example 29, (1R)-4-(1-Hydroxymethyl-2-phenoxy-ethoxy)-2-trifluoromethyl-benzonitrile] | 44 | 117 |  |  | 
COC[C@H](COc1ccccc1)Oc1ccc(C#N)c(C(F)(F)F)c1 [Example 30, (1R)-4-(1-Methoxymethyl-2-phenoxy-ethoxy)-2-trifluoromethyl-benzonitrile] | 30 |  |  | 40 | 
COC[C@@H](COc1ccccc1)Oc1ccc(C#N)c(C(F)(F)F)c1 [Example 31, (1S)-4-(1-Methoxymethyl-2-phenoxy-ethoxy)-2-trifluoromethyl-benzonitrile] | 46 | 126 |  |  | 
NCCCC(O)(P(=O)(O)O)P(=O)(O)O [alendronate] |  |  |  |  | ≤ 11
